# Where two headings read alike, the source gives them in different places.
# Tests used:
# [1] = tested on: A498; test: In vitro inhibition, CellTiter-Glo (CTG) assay, 72 hr exposure; type: cell-based
# Procedure: (§1) Cells were grown in RPMI-1640 supplemented with L-Glutamine and 10% FBS of the following cell lines:
# (§2) CCRF-CEM; CCRF-CEM-cytarabine resistant; HL-60; K562; CFPAC-1; MiaPACA-2; BxPC-3; PANC-1; HepG2; MDA-MB-231; HCT-116; A498; and NCI-H69
# (§3) 18, 96 well plates of each cell line were seeded with the optimized number of cells per well in a total volume of 50 μL per well. The plates were left overnight. Plate wells were seeded with 100 μL media for media control. The following day, cells were exposed to test compounds as described below. At the same time as drug exposure, a CTG assay was conducted on the 18th plate for the 0 hr count.
# (§4) The compounds were added to cells and medium already on the plate to give desired final concentrations. 50 μL media were added to cell control wells, and 50 μL of mix added to vehicle control wells. 10 μM Doxorubicin was added to appropriate wells. Cells exposed to test compound were incubated at 37° C. for 72 hr followed by a CTG assay.
# (§5) At the end of the 72 hr exposure period, plates were removed for a CellTiter-Glo (CTG) assay from a 37° C., 5% CO2 incubator and placed on the bench at room temperature for 30 mins. 100 μL of CellTiter-Glo reagent was added and mixed for 2 mins, followed by a further 10 min incubation at room temperature. Luminescence was recorded using Synergy 4.0.
# [2] = tested on: BxPC-3; test: as above; type: cell-based; conditions: Homo sapiens
# Procedure: as §1, §2, §3, §4, §5
# [3] = tested on: CCRF-CEM-cytarabine resistant; test: as above; type: cell-based
# Procedure: as §1, §2, §3, §4, §5
# [4] = tested on: CCRF-CEM; test: as above; type: cell-based
# Procedure: as §1, §2, §3, §4, §5
# [5] = tested on: CFPAC-1; test: as above; type: cell-based; conditions: Homo sapiens
# Procedure: as §1, §2, §3, §4, §5
# [6] = tested on: HCT-116; test: as above; type: cell-based
# Procedure: as §1, §2, §3, §4, §5
# [7] = tested on: HL-60; test: as above; type: cell-based
# Procedure: as §1, §2, §3, §4, §5
# [8] = tested on: HepG2; test: as above; type: cell-based
# Procedure: as §1, §2, §3, §4, §5
# [9] = tested on: K562; test: as above; type: cell-based; conditions: Homo sapiens, K562, 72 hr
# Procedure: as §1, §2, §3, §4, §5
# [10] = tested on: MDA-MB-231; test: as above; type: cell-based; conditions: MDA-MB-231, 72 hr
# Procedure: as §1, §2, §3, §4, §5
# [11] = tested on: MiaPACA-2; test: as above; type: cell-based
# Procedure: as §1, §2, §3, §4, §5
# [12] = tested on: NCI-H69; test: as above; type: cell-based
# Procedure: as §1, §2, §3, §4, §5
# [13] = tested on: PANC-1; test: as above; type: cell-based; conditions: PANC-1, 72 hr
# Procedure: as §1, §2, §3, §4, §5
# [14] = tested on: live leukemic cells of AML patient samples (bone marrow or peripheral blood); test: Ex-vivo effect on AML patient samples, depletion of live leukemic cells by flow cytometry; type: cell-based, human; conditions: plates incubated for 48 hours
# Procedure: Patient samples were obtained from a non-interventional and prospective study. The study included samples from adult patients over 18 years of age who were diagnosed with Acute Myeloid Leukemia (AML).
# In one embodiment, the method of data acquisition was performed as follows: on day 1 bone marrow (BM) or peripheral blood (PB) patient sample was received. A small part was separated from the rest of the sample for validation, while the majority of the sample was diluted with culture media and plated into 96-well plates previously prepared with the desired compounds and compound combinations, e.g., a compound or compound combination described herein. The number of live leukemic cells seeded in each well was fixed between 8000 and 32000, depending on the percentage of leukemic cells for each sample. […] Antibodies were added to identify leukemic cells using a gating strategy based on FSC/SSC and expression or lack of expression of different surface markers. The monoclonal antibodies selection was performed to optimize the identification of leukemic cell in each sample.
# In one embodiment, non-limiting examples of biomarkers such as the biomarkers CD34, CD45, CD117, and HLADR known as “backbone markers” for AML (van Dongen, J. J. and A. Orfao, EuroFlow: Resetting leukemia and lymphoma immunophenotyping. Basis for companion diagnostics and personalized medicine, Leukemia, 2012, 26, 1899-907) were included in the combination.
# In one embodiment, antibody combinations such as CD117/CD45, CD34/CD45, and HLADR/CD45 were used. Live leukemic cells were identified by their light scatter properties (FSC^int/hi/SSC^int) in the absence of Annexin-V-FITC staining. FSC/SSC selection was performed to exclude debris. The average percentage of cell viability upon receipt of the sample was 80% and samples were only processed if the viability was greater than 50%.
# In one embodiment, sample validation was performed as follows: BM and PB samples were extracted under sterile conditions and received in the laboratory within 24 hours of extraction. Initial analysis evaluated the number of pathological cells and their viability. Different volumes of sample (1 μL, 3 μL, 5 μL and 7 μL) were aliquoted in duplicate into a 96-well plate. To lyse red blood cells, 180 μL of ammonium chloride lysis solution was added to each well (2 g KHCO3, 16.58 g NH4Cl, 0.074 g Na2EDTA.2H2O, H2O to 1 L). Following a 10 min incubation period at 4° C., plate was centrifuged for 5 min at 1200 rpm and the supernatant removed. The lysis step was performed twice. To analyze, 20 μL of a combination of Annexin V-FITC (Immunostep, Salamanca, Spain), binding buffer (BB, 2.4 g HEPES, 8.19 g NaCl, 0.37 g Cl2Ca, H2O to 1 L), and the following monoclonal antibodies (mAb) were added to each well: CD117 (clone 104D2)-PE (Becton Dickinson, San Jose, Calif., US), CD34 (clone 581)-PerCP (BioLegend, San Diego, Calif., US), HLADR (clone L243)-PB (BioLegend) and CD45 (HI30)-PO (Life Technologies, Carlsbad, Calif., US) (van Dongen, J. J., et al., EuroFlow antibody panels for standardized n-dimensional flow cytometric immunophenotyping of normal, reactive and malignant leukocytes, Leukemia, 2012, 26, 1908-75). After 15 min of incubation at room temperature in the dark, a wash step was performed using binding buffer solution. The pellet was resuspended in 30 μL BB for analysis in Vivia's ExviTech© platform. Cell count and viability upon arrival were computed and the optimal volume of sample to use per well was determined.
# In one embodiment, the assay was performed according to following method: the whole sample was diluted with RPMI 1640, supplemented with 20% (v/v) FBS (Thermo Scientific, Waltham, Mass., US), 2% HEPES, 1% antibiotic (Zell Shield, Labclinics, Barcelona, Spain) and 1% L-glutamine 200 mM (Lonza, Hopkinton, Mass., US) to a final volume of 60 μL per well. […]
# [15] = Homo sapiens, MIA PaCa-2, MiaPACA-2, 72 hr
smiles,measurement,setting,value
"CC(C)OC(=O)[C@H](C)NP(=O)(OC[C@H]1S[C@@H](n2ccc(N)nc2=O)[C@@H](O)[C@@H]1O)Oc1ccccc1 (single isomer, unassigned) [Compound 101b (diastereoisomer 2)]",IC50,"[1]; A498, 72 hr",10 to 100 µM
same,IC50,"[2]; BxPC-3, 72 hr",10 to 100 µM
same,IC50,[3],1 to 10 µM
same,IC50,[4]; Homo sapiens,< 1 µM
same,IC50,"[5]; CFPAC-1, 72 hr",10 to 100 µM
same,IC50,"[6]; HCT-116, 72 hr",1 to 10 µM
same,IC50,"[7]; Homo sapiens, HL-60, 72 hr",1 to 10 µM
same,IC50,"[8]; HepG2, 72 hr",1 to 10 µM
same,IC50,[9],10 to 100 µM
same,IC50,[10],10 to 100 µM
same,IC50,"[11]; MiaPACA-2, 72 hr",1 to 10 µM
same,IC50,"[12]; NCI-H69, 72 hr",10 to 100 µM
same,IC50,[13],10 to 100 µM
"CCOC(=O)COP(=O)(N[C@@H](CC(C)C)C(=O)OCC)OC[C@H]1S[C@@H](n2ccc(N)nc2=O)[C@@H](O)[C@@H]1O (single isomer, unassigned) [Compound 102b (diastereoisomer 1)]",IC50,"[1]; Homo sapiens, A498, 72 h",10 to 100 µM
same,IC50,"[2]; BXPC-3, 72 h",10 to 100 µM
same,IC50,[3],10 to 100 µM
same,IC50,"[4]; Homo sapiens, 72 h",< 1 µM
same,IC50,"[5]; CFPAC-1, 72 h",10 to 100 µM
same,IC50,"[6]; Homo sapiens, HCT-116, 72 h",10 to 100 µM
same,IC50,"[7]; Homo sapiens, HL-60, 72 h",1 to 10 µM
same,IC50,"[8]; HepG2, 72 hr",1 to 10 µM
same,IC50,[9],10 to 100 µM
same,IC50,[10]; Homo sapiens,10 to 100 µM
same,IC50,[11]; [15],10 to 100 µM
same,IC50,"[12]; Homo sapiens, NCI-H69, 72 h",10 to 100 µM
same,IC50,[13]; Homo sapiens,10 to 100 µM
"CCOC(=O)COP(=O)(N[C@@H](CC(C)C)C(=O)OCC)OC[C@H]1S[C@@H](n2ccc(N)nc2=O)[C@@H](O)[C@@H]1O (single isomer, unassigned) [drawing 50]",EC50,[14],10 to 20 µM
"CC(C)OC(=O)[C@H](C)NP(=O)(OC[C@H]1S[C@@H](n2ccc(N)nc2=O)[C@@H](O)[C@@H]1O)Oc1ccccc1 (single isomer, unassigned) [drawing 47]",EC50,"[14]; Homo sapiens, 48 h",≥ 20 µM
same,Emax,[14]; Homo sapiens,0 to 10%
"CC(C)(C)SSCCOP(=O)(NCc1ccccc1)OC[C@H]1S[C@@H](n2ccc(N)nc2=O)[C@@H](O)[C@@H]1O (single isomer, unassigned) [Compound 105 (diastereoisomer 1)]",IC50,"[1]; Homo sapiens, A498, 72 h",10 to 100 µM
same,IC50,"[2]; BXPC-3, 72 h",10 to 100 µM
same,IC50,[3],10 to 100 µM
same,IC50,[4],1 to 10 µM
same,IC50,"[5]; CFPAC-1, 72 h",10 to 100 µM
same,IC50,"[6]; Homo sapiens, HCT-116, 72 h",10 to 100 µM
same,IC50,"[7]; HL-60, 72 hr",1 to 10 µM
same,IC50,"[8]; Homo sapiens, HepG2, 72 h",10 to 100 µM
same,IC50,[9],10 to 100 µM
same,IC50,[10]; Homo sapiens,10 to 100 µM
same,IC50,[11]; [15],1 to 10 µM
same,IC50,"[12]; NCI-H69, 72 hr",1 to 10 µM
same,IC50,[13]; Homo sapiens,10 to 100 µM
"CC(C)(C)SSCCOP(=O)(NCc1ccccc1)OC[C@H]1S[C@@H](n2ccc(N)nc2=O)[C@@H](O)[C@@H]1O (single isomer, unassigned) [drawing 58]",EC50,[14],≥ 20 µM
same,Emax (%),[14],C (C>20%)
CC(=O)OC[C@H](C)NP1(=O)OC[C@H]2S[C@@H](n3ccc(N)nc3=O)[C@@H](O)C2O1 (stereo partly shown),EC50,"[14]; Homo sapiens, 48 h",≥ 20 µM
same,Emax,"[14]; Homo sapiens, 48 h",> 20%
"Nc1ccn([C@@H]2S[C@H](COP(=O)(NCc3ccccc3)OCc3ccc([N+](=O)[O-])o3)[C@@H](O)[C@@H]2O)c(=O)n1 (single isomer, unassigned) [drawing 53]",EC50,[14],1 to 10 µM
same,Emax (%),[14],A (A=0-10%)
Nc1ccn([C@@H]2S[C@H](COP(=O)(O)NCc3ccccc3)[C@@H](O)[C@@H]2O)c(=O)n1 [drawing 49],EC50,"[14]; Homo sapiens, 48 h",1 to 10 µM
same,Emax,"[14]; Homo sapiens, 48 h",10 to 20%
"CC(C)(C)SSCCOP(=O)(NCc1ccccc1)OC[C@H]1S[C@@H](n2ccc(N)nc2=O)[C@@H](O)[C@@H]1O (single isomer, unassigned) [drawing 57]",EC50,"[14]; Homo sapiens, 48 h",≥ 20 µM
same,Emax,"[14]; Homo sapiens, 48 h",10 to 20%
"COC(=O)COP(=O)(N[C@@H](CC(C)C)C(=O)OC)OC[C@H]1S[C@@H](n2ccc(N)nc2=O)[C@@H](O)[C@@H]1O (single isomer, unassigned) [drawing 54]",EC50,"[14]; Homo sapiens, 48 h",1 to 10 µM
same,Emax,"[14]; Homo sapiens, 48 h",0 to 10%
"Nc1ccn([C@@H]2S[C@H](COP(=O)(NCc3ccccc3)OCc3ccc([N+](=O)[O-])o3)[C@@H](O)[C@@H]2O)c(=O)n1 (single isomer, unassigned) [drawing 52]",Emax,"[14]; Homo sapiens, 48 h",0 to 10%
same,EC50,[14],10 to 20 µM
"CC(C)OC(=O)[C@H](C)NP(=O)(OC[C@H]1S[C@@H](n2ccc(N)nc2=O)[C@@H](O)[C@@H]1O)Oc1ccccc1 (single isomer, unassigned) [drawing 48]",EC50,[14],10 to 20 µM
same,Emax (%),[14],A (A=0-10%)
"CCOC(=O)COP(=O)(N[C@@H](CC(C)C)C(=O)OCC)OC[C@H]1S[C@@H](n2ccc(N)nc2=O)[C@@H](O)[C@@H]1O (single isomer, unassigned) [drawing 51]",EC50,"[14]; Homo sapiens, 48 h",10 to 20 µM
same,Emax,"[14]; Homo sapiens, 48 h",0 to 10%
"COC(=O)COP(=O)(N[C@@H](CC(C)C)C(=O)OC)OC[C@H]1S[C@@H](n2ccc(N)nc2=O)[C@@H](O)[C@@H]1O (single isomer, unassigned) [drawing 55]",EC50,[14],1 to 10 µM

# Reference: patent publication US10815264B2, “Nucleotides for the treatment of cancer” (IDENIX PHARMACEUTICALS LLC, priority 2015, dated 2020)
